One assay concerns HCV replicon cells. The assay can be described thus: HCV replicon FRET assay. The class given is cell-based. The following applies: Hepatitis C virus. On the procedure:
FRET Assay Preparation. The HCV FRET screening assay was performed in 96-well cell culture plates. The FRET peptide (Anaspec, Inc.) (Taliani et al., Anal. Biochem. 1996, 240, 60-67) contains a fluorescence donor, EDANS, near one end of the peptide and an acceptor, DABCYL, near the other end. The fluorescence of the peptide is quenched by […] resonance energy transfer (RET) between the donor and the acceptor, but as the NS3 protease cleaves the peptide the products are released from RET quenching and the fluorescence of the donor becomes apparent. The assay reagent was made as follows: 5× cell Luciferase cell culture lysis reagent from Promega (#E153A) diluted to 1× with dH2O, NaCl added to 150 mM final, the FRET peptide diluted to 20 μM final from a 2 mM stock.
To prepare plates, HCV replicon cells, with or without a Renilla luciferase reporter gene, were trypsinized and plated in a 96-well plate with titrated test compounds added in columns 3 through 12; columns 1 and 2 contained a control compound (HCV control inhibitor), and the bottom row contained cells with DMSO only. The plates were then placed in a CO2 incubator at 37° C.
Assays. Subsequent to addition of the test compounds described above (FRET Assay Preparation), at various times the plate was removed and Alamar blue solution (Trek Diagnostics, #00-100) was added to measure cellular toxicity. After reading in a Cytoflour 4000 instrument (PE Biosystems), plates were rinsed with PBS and then used for FRET assay by the addition of 30 ul of the FRET peptide assay reagent described above (FRET Assay Preparation) per well. The plate was then placed into the Cytoflour 4000 instrument which had been set to 340 excite/490 emission, automatic mode for up to 20 cycles and the plate read in a kinetic mode. Typically, the signal to noise using an endpoint analysis after the reads was at least three-fold. Alternatively, after Alamar blue reading, plates were rinsed with PBS, then used for luciferase assay using the Promega Dual-Glo Luciferase Assay System or the Promega EnduRen Live Cell Substrate assay.
Compound analysis was performed by quantification of the relative HCV replicon inhibition and the relative cytotoxicity values. To calculate cytoxicity values, the average Alamar Blue fluorescence signals from the control wells were set as 100% non-toxic. The individual signals in each of the compound test wells were then divided by the average control signal and multiplied by 100% to determine […]. To calculate the HCV replicon inhibition values, an average background value was obtained from the two wells containing the highest amount of HCV control inhibitor at the end of the assay period. These numbers were similar to those obtained from naïve Huh-7 cells. The background numbers were then subtracted from the average signal obtained from the control wells and this number was used as 100% activity. The individual signals in each of the compound test wells were then divided by the averaged control values after background subtraction and multiplied by 100% to determine percent activity. EC50 values were calculated as the concentration which caused a 50% reduction in FRET or luciferase activity. The two numbers generated for the compound plate, percent cytoxicity and percent activity, were used to determine compounds of interest for further analysis.

For a further assay, the target named is T1, HCV NS5B (Hepatitis C virus genotype 1b, UniProt Q9WMX2).
T1 construct: The protein was expressed with an 18 amino acid C-terminal truncation to enhance the solubility; made in house; host or cells: E. coli BL21(DE3)
T1 sequence (Q9WMX2 2420-2992): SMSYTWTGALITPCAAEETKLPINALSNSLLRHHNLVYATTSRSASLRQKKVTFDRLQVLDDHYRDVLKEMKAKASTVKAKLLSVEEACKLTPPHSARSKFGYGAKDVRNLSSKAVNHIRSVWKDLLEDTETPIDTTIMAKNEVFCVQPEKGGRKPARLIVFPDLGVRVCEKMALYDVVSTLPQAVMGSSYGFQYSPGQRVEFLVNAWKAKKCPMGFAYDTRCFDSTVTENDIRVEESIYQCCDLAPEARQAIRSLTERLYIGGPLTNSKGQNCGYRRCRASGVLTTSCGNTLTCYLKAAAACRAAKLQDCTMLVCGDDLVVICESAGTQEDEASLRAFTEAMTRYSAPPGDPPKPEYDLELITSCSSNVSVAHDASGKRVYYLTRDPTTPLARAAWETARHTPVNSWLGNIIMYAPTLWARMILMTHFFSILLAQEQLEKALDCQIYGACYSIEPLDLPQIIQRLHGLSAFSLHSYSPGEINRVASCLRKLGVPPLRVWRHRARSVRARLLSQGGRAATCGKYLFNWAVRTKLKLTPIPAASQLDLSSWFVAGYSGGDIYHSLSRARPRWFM
The assay can be described thus: Modified HCV NS5B RdRp enzyme assay (preincubation protocol). The class given is biochemical. On the procedure: HCV NS5B RdRp cloning, expression, and purification. The cDNA encoding the NS5B protein of HCV, genotype 1b, was cloned into the pET21a expression vector. The protein was expressed with an 18 amino acid C-terminal truncation to enhance the solubility. The E. coli competent cell line BL21(DE3) was used for expression of the protein. Cultures were grown at 37° C. for ˜4 hours until the cultures reached an optical density of 2.0 at 600 nm. The cultures were cooled to 20° C. and induced with 1 mM IPTG. Fresh ampicillin was added to a final concentration of 50 μg/ml and the cells were grown overnight at 20° C.
Cell pellets (3 L) were lysed for purification to yield 15-24 mgs of purified NS5B. The lysis buffer consisted of 20 mM Tris-HCl, pH 7.4, 500 mM NaCl, 0.5% triton X-100, 1 mM DTT, 1 mM EDTA, 20% glycerol, 0.5 mg/ml lysozyme, 10 mM MgCl2, 15 ug/ml deoxyribonuclease I, and Complete TM protease inhibitor tablets (Roche). After addition of the lysis buffer, frozen cell pellets were resuspended using a tissue homogenizer. To reduce the viscosity of the sample, aliquots of the lysate were sonicated on ice using a microtip attached to a Branson sonicator. The sonicated lysate was centrifuged at 100,000×g for 1 hr at 4° C. and filtered through a 0.2 μm filter unit (Corning).
The protein was purified using two sequential chromatography steps: Heparin sepharose CL-6B and polyU sepharose 4B (Pharmacia). The chromatography buffers were identical to the lysis buffer but contained no lysozyme, deoxyribonuclease I, MgCl2 or protease inhibitor and the NaCl concentration of the buffer was adjusted according to the requirements for charging the protein onto the column. Each column was eluted with a NaCl gradient which varied in length from 5-50 column volumes depending on the column type. After the final chromatography step, the resulting purity of the enzyme is >90% based on SDS-PAGE analysis. The enzyme was aliquoted and stored at −80° C.
Standard HCV NS5B RdRp enzyme assay. HCV RdRp genotype 1b assays were run in a final volume of 60 μl in 96 well plates (Corning 3600). The assay buffer is composed of 20 mM Hepes, pH 7.5, 2.5 mM KCl, 2.5 mM MgCl2, 1 mM DTT, 1.6 U RNAse inhibitor (Promega N2515), 0.01 mg/ml BSA (Sigma B6917), and 2% glycerol. All compounds were serially diluted (3-fold) in DMSO and diluted further in water such that the final concentration of DMSO in the assay was 2%. HCV RdRp genotype 1b enzyme was used at a final concentration of 28 nM. A polyA template was used at 6 nM, and a biotinylated oligo-dT12 primer was used at 180 nM final concentration. Template was obtained commercially (Amersham 27-4110). Biotinylated primer was prepared by Sigma Genosys. 3H-UTP was used at 0.6 μCi (0.29 μM total UTP). Reactions were initiated by the addition of enzyme, incubated at 30° C. for 60 min, and stopped by adding 25 μl of 50 mM EDTA containing SPA beads (4 μg/μl, Amersham RPNQ 0007). Plates were read on a Packard Top Count NXT after >1 hr incubation at room temperature.
Modified HCV NS5B RdRp enzyme assay. A modified enzyme assay was performed essentially as described for the standard enzyme assay except for the following: The biotinylated oligo dT12 primer was precaptured on streptavidin-coated SPA beads by mixing primer and beads in assay buffer and incubating at room temperature for one hour. Unbound primer was removed after centrifugation. The primer-bound beads were resuspended in 20 mM Hepes buffer, pH 7.5 and used in the assay at final concentrations of 20 nM primer and 0.67 μg/μl beads. Order of addition in the assay: enzyme (1.75 nM) was added to diluted compound followed by the addition of a mixture of template (0.36 nM), 3H-UTP (0.6 μCi, 0.29 μM), and primer-bound beads, to initiate the reaction; concentrations given are final. Reactions were allowed to proceed for 4 hours at 30° C.
IC50 values for compounds were determined using seven different [I]. […]

Experimental findings from US8124601B2, “Compounds for the treatment of Hepatitis C” (Bristol-Myers Squibb Company, priority 2007, dated 2012) are described below.

Regarding `COc1ccc2c(c1)C1CC1(C(=O)N1CCC3(CCN(C(=O)OC(C)(C)C)C3)C1)Cn1c-2c(C2CCCCC2)c2ccc(C(=O)NS(=O)(=O)C(C)C)cc21` (centres unmarked), the EC50 (in general, the concentration giving half of the maximal effect) in the assay with HCV replicon cells fell in the range of 4.58 to 500 nM. Besides, the IC50 (in general, the midpoint of a concentration-inhibition curve) against HCV NS5B lay within 4.58 to 500 nM.

For the molecule `COc1ccc2c(c1)C1CC1(C(=O)N1CCC3(CCCN3C(=O)OC(C)(C)C)CC1)Cn1c-2c(C2CCCCC2)c2ccc(C(=O)NS(=O)(=O)C(C)C)cc21` (centres unmarked), the EC50 with HCV replicon cells lay within 4.58 to 500 nM. At HCV NS5B, the IC50 lay within 4.58 to 500 nM.

`CCCS(=O)(=O)NC(=O)c1ccc2c(C3CCCCC3)c3n(c2c1)CC1(C(=O)N2CCC4(CCCN4C(=O)OC(C)(C)C)CC2)CC1c1cc(OC)ccc1-3` (centres unmarked) displayed an EC50 in the assay with HCV replicon cells of 4.58 to 500 nM. This molecule also registered an IC50 against HCV NS5B of 4.58 to 500 nM.

`COc1ccc2c(c1)C1CC1(C(=O)N1CCC3(CCCN3)CC1)Cn1c-2c(C2CCCCC2)c2ccc(C(=O)NS(=O)(=O)C(C)C)cc21` (centres unmarked) returned an EC50 in the assay on HCV replicon cells of 4.58 to 500 nM. For the same molecule, the IC50 against HCV NS5B lay within 4.58 to 500 nM.

`CCCS(=O)(=O)NC(=O)c1ccc2c(C3CCCCC3)c3n(c2c1)CC1(C(=O)N2CCC4(CCCN4)CC2)CC1c1cc(OC)ccc1-3` (centres unmarked) gave a half-maximal effective concentration (EC50) in the assay with HCV replicon cells of 4.58 to 500 nM. For the same molecule, at HCV NS5B, the IC50 was in the range of 4.58 to 500 nM.

Molecule `COc1ccc2c(c1)C1CC1(C(=O)N1CCC3(CCCN3C)CC1)Cn1c-2c(C2CCCCC2)c2ccc(C(=O)NS(=O)(=O)C(C)C)cc21` (centres unmarked) came in with a concentration giving a half-maximal response (EC50) with HCV replicon cells of 4.58 to 500 nM. The same molecule came in with an IC50 at HCV NS5B of 4.58 to 500 nM.

`CCCS(=O)(=O)NC(=O)c1ccc2c(C3CCCCC3)c3n(c2c1)CC1(C(=O)N2CCC4(CCCN4C)CC2)CC1c1cc(OC)ccc1-3` (centres unmarked) registered an EC50 in the assay on HCV replicon cells of 4.58 to 500 nM. Further, the concentration for half-maximal inhibition (IC50) against HCV NS5B is 4.58 to 500 nM.

Consider `COc1ccc2c(c1)C=C(C(=O)N1CCCC13CCN(C)CC3)Cn1c-2c(C2CCCCC2)c2ccc(C(=O)NS(=O)(=O)C(C)C)cc21`, for which the EC50 in the assay on HCV replicon cells lay in the range of 4.58 to 500 nM. Further, the IC50 at HCV NS5B fell in the range of 4.58 to 500 nM.

In the assay with HCV replicon cells, `COc1ccc2c(c1)C1CC1(C(=O)N1CCCC13CCN(C)CC3)Cn1c-2c(C2CCCCC2)c2ccc(C(=O)NS(=O)(=O)C(C)C)cc21` (centres unmarked) registered an EC50 of 4.58 to 500 nM. The molecule further registered an IC50 at HCV NS5B of 4.58 to 500 nM.

For `CCCS(=O)(=O)NC(=O)c1ccc2c(C3CCCCC3)c3n(c2c1)CC1(C(=O)N2CCCC24CCN(C)CC4)CC1c1cc(OC)ccc1-3` (centres unmarked), in the assay on HCV replicon cells, the EC50 fell in the range of 4.58 to 500 nM. This molecule also returned an IC50 against HCV NS5B of 4.58 to 500 nM.

With `COc1ccc2c(c1)C1CC1(C(=O)N1CCC3(CCCN3C(C)=O)CC1)Cn1c-2c(C2CCCCC2)c2ccc(C(=O)NS(=O)(=O)C(C)C)cc21` (centres unmarked), the EC50 in the assay with HCV replicon cells is 4.58 to 500 nM. Also, the IC50 against HCV NS5B was in the range of 4.58 to 500 nM.

In the case of `CCCS(=O)(=O)NC(=O)c1ccc2c(C3CCCCC3)c3n(c2c1)CC1(C(=O)N2CCC4(CCCN4C(C)=O)CC2)CC1c1cc(OC)ccc1-3` (centres unmarked), the concentration for a half-maximal effect (EC50) in the assay with HCV replicon cells fell in the range of 4.58 to 500 nM. On HCV NS5B, the IC50 is 4.58 to 500 nM.

In turn, `COc1ccc2c(c1)C1CC1(C(=O)N1CCNC3(CCCC3)C1)Cn1c-2c(C2CCCCC2)c2ccc(C(=O)NS(=O)(=O)C(C)C)cc21` (centres unmarked) gave an EC50 in the assay with HCV replicon cells of 4.58 to 500 nM. This molecule displayed an IC50 on HCV NS5B of 4.58 to 500 nM.

In turn, `COc1ccc2c(c1)C1CC1(C(=O)N1CCNC3(CCCCC3)C1)Cn1c-2c(C2CCCCC2)c2ccc(C(=O)NS(=O)(=O)C(C)C)cc21` (centres unmarked) showed an EC50 with HCV replicon cells of 4.58 to 500 nM. The IC50 at HCV NS5B is 4.58 to 500 nM.

In the assay with HCV replicon cells, `CCCS(=O)(=O)NC(=O)c1ccc2c(C3CCCCC3)c3n(c2c1)CC1(C(=O)N2CCNC4(CCCC4)C2)CC1c1cc(OC)ccc1-3` (centres unmarked) had an EC50 of 4.58 to 500 nM. The same molecule had an IC50 against HCV NS5B of 4.58 to 500 nM.

In the case of `CCCS(=O)(=O)NC(=O)c1ccc2c(C3CCCCC3)c3n(c2c1)CC1(C(=O)N2CCNC4(CCCCC4)C2)CC1c1cc(OC)ccc1-3` (centres unmarked), the EC50 in the assay on HCV replicon cells is 4.58 to 500 nM. This molecule also displayed a 50% inhibitory concentration (IC50) against HCV NS5B of 4.58 to 500 nM.

Turning to `COc1ccc2c(c1)C1CC1(C(=O)N1CCN(C)C3(CCCC3)C1)Cn1c-2c(C2CCCCC2)c2ccc(C(=O)NS(=O)(=O)C(C)C)cc21` (centres unmarked), the EC50 in the assay with HCV replicon cells is 4.58 to 500 nM. The molecule further gave an IC50 at HCV NS5B of 4.58 to 500 nM.

`COc1ccc2c(c1)C1CC1(C(=O)N1CCN(C)C3(CCCCC3)C1)Cn1c-2c(C2CCCCC2)c2ccc(C(=O)NS(=O)(=O)C(C)C)cc21` (centres unmarked) had an EC50 in the assay on HCV replicon cells of 4.58 to 500 nM. The molecule further displayed an IC50 against HCV NS5B of 4.58 to 500 nM.

For `CCCS(=O)(=O)NC(=O)c1ccc2c(C3CCCCC3)c3n(c2c1)CC1(C(=O)N2CCN(C)C4(CCCC4)C2)CC1c1cc(OC)ccc1-3` (centres unmarked), in the assay with HCV replicon cells, the EC50 fell in the range of 4.58 to 500 nM. Besides, the IC50 against HCV NS5B was in the range of 4.58 to 500 nM.
